Experiment [1] deals with T1, FGF-R1C ECD (Homo sapiens, UniProt P11362).
T1 sequence (P11362 22-376 limits assumed): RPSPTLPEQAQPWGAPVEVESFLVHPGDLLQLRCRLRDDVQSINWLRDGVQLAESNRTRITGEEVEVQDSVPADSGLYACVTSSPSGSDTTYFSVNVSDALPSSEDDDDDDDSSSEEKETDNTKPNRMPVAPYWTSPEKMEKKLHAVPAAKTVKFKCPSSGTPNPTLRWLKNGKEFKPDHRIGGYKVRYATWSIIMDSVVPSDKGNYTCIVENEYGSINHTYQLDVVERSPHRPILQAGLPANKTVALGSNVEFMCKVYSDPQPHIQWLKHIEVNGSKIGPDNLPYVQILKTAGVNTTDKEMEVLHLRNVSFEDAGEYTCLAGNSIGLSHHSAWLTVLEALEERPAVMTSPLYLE
Kind of experiment: biochemical. The procedure: (§1) KD affinity binding measurements were obtained by biolayer interferometry (BLI) instruments (Fortebio Octet HTX, or Sartorius Octet RH16 using either 8 or 16 channel mode.
(§2) For single concentration binding experiments, 50 μM peptide stocks in folding buffer were diluted 1:50 in mRNA display selection buffer (PBS pH7.4 supplemented with 0.05% Tween-20 and 0.01% BSA) in either a 96 well black plate, or a 384 well tilted bottom microplate (ForteBio). Biotinylated FGF-R protein was loaded onto Streptavidin-functionalised biosensors (ForteBio) and immersed into ~1 μM peptide to obtain association kinetics curves. Dissociation kinetics curves were obtained by subsequent immersion of ligand-associated loaded sensors into a 1:50 dilution of folding buffer in mRNA display selection buffer. Fitted KD data was adjusted for concentration as determined by UPLC-CAD.
(§3) For accurate multi-concentration KD determination, dilution series of each peptide were made, and association and dissociation kinetics curves were obtained as above for each concentration to fit a multi-point KD binding model. Data collection and analysis was performed using the Octet Instrument Control […]
(§4) concentration assay kinetics curves shown in supplementary Figure S 19-24.

For experiment [2], the target named is T2, FGF-R3C ECD (Homo sapiens, UniProt P22607).
T2 sequence (P22607 23-375 limits assumed): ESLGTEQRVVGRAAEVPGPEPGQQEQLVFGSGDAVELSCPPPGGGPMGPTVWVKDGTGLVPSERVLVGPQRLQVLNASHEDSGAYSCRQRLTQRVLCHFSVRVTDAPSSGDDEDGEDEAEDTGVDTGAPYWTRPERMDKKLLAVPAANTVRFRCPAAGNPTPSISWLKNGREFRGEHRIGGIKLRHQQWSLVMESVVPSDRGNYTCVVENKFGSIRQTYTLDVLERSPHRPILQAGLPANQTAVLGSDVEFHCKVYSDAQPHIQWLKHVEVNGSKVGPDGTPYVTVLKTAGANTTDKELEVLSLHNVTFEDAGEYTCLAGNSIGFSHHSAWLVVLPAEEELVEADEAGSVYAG
The experiment can be described thus: biochemical. On the procedure: as §1, §2, §3, §4

The target in experiment [3] is T3, FGF-R4 ECD (Homo sapiens, UniProt P22455).
T3 construct: DNA constructs for the extracellular domain (ECD) of human FGF-; HPC4 (C); made in house; host or cells: HEK 293-6E
T3 sequence (P22455 22-369 limits assumed): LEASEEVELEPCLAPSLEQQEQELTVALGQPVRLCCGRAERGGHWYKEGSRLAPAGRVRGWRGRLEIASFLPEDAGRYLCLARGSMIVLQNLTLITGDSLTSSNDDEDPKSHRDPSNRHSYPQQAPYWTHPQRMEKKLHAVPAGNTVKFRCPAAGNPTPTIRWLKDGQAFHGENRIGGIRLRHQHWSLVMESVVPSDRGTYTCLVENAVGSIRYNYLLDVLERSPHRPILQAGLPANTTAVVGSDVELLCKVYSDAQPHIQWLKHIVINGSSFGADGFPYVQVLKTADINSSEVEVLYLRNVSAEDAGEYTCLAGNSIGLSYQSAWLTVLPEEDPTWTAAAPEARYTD
The experiment can be described thus: multi-concentration BLI of purified peptides. The experiment is classed as binding. On the procedure: as §1, §2, §3, §4

Experiment [4] addresses T1, FGF-R1C ECD. Kind of experiment: biochemical. The experiment is classed as binding. Also noted: DNA constructs for the extracellular domain (ECD) of human FGF-; HPC4 (C); made in house; host or cells: HEK 293-6E. The essentials: (§5)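 Streptavidin biosensors carrying biotinylated FGF receptor ECD were immersed in peptide (~1 μM for crude single-point runs, a concentration series for purified peptides) and then in peptide-free buffer. KD was obtained by fitting the BLI association and dissociation curves.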

Experiment [5] has as its target T2, FGF-R3C ECD. Kind of experiment: biochemical. The experiment is classed as binding. Set-up: DNA constructs for the extracellular domain (ECD) of human FGF-; HPC4 (C); made in house; host or cells: HEK 293-6E. The essentials: as §5
Experiment [6] addresses T3, FGF-R4 ECD. Kind of experiment: single concentration BLI of crude peptides. The experiment is classed as binding. As to conditions: read-out: KD (4). The method, boiled down: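 BLI, streptavidin sensors loaded with biotinylated receptor ECD. Single-point: ~1 μM crude peptide, PBS pH7.4/0.05% Tween-20/0.01% BSA; association then dissociation in buffer. KD corrected for UPLC-CAD-determined concentration.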

Setting [7] is: purified trimer-18 library peptides.
[8] abbreviates: crude T18 selection 1 (1:1:1) peptides, single concentration BLI (Table S4).

Read-outs that look alike come from different tables or passages of the source. Some results are limits rather than exact numbers.

For `CSCC[C@H](NC(C)=O)C(=O)N[C@H]1CSSC[C@@H](C(=O)NCC(=O)N[C@@H](CO)C(=O)NCC(=O)N[C@@H](CO)C(=O)N[C@@H](CC(=O)O)C(=O)N[C@@H](Cc2ccc(O)cc2)C(=O)N[C@@H](CCCCN)C(=O)N[C@@H](CC(=O)O)C(=O)N[C@@H](CC(=O)O)C(=O)N[C@@H](CC(=O)O)C(=O)N[C@@H](CC(=O)O)C(=O)N[C@@H](CCCCN)C(N)=O)NC(=O)[C@H](Cc2c[nH]cn2)NC(=O)[C@H](CCCNC(=N)N)NC(=O)[C@H](CC(C)C)NC(=O)[C@H](CC(=O)O)NC(=O)[C@H](CCCCN)NC(=O)[C@H](Cc2ccc(O)cc2)NC(=O)[C@H](CC(C)C)NC(=O)[C@H](CC(C)C)NC(=O)[C@H](C(C)C)NC(=O)[C@H](CC(N)=O)NC1=O` [4.17], the Kd on FGF-R1C ECD [1] is more than 1000 nM; at FGF-R3C ECD [2], more than 1000 nM; at FGF-R4 ECD [3] (setting [7]) it was more than 1000 nM; at FGF-R1C ECD [4] it was more than 10000 nM; at FGF-R3C ECD [5] it was more than 10000 nM; at FGF-R4 ECD [6] (setting [8]) it was more than 10000 nM.

In the case of `CSCC[C@H](NC(C)=O)C(=O)N[C@H]1CSSC[C@@H](C(=O)NCC(=O)N[C@@H](CO)C(=O)NCC(=O)N[C@@H](CO)C(=O)N[C@@H](CCC(=O)O)C(=O)N[C@@H](CCC(=O)O)C(=O)NCC(=O)N[C@@H](CO)C(=O)NCC(=O)N[C@@H](CO)C(=O)N[C@@H](CC(=O)O)C(=O)N[C@@H](Cc2ccc(O)cc2)C(=O)N[C@@H](CCCCN)C(=O)N[C@@H](CC(=O)O)C(=O)N[C@@H](CC(=O)O)C(=O)N[C@@H](CC(=O)O)C(=O)N[C@@H](CC(=O)O)C(=O)N[C@@H](CCCCN)C(N)=O)NC(=O)[C@H](CCCCN)NC(=O)[C@H](CCCCN)NC(=O)[C@H](Cc2c[nH]c3ccccc23)NC(=O)[C@H](CC(C)C)NC(=O)[C@H](CC(C)C)NC(=O)[C@H](Cc2ccc(O)cc2)NC(=O)[C@H](Cc2ccc(O)cc2)NC(=O)[C@H](Cc2ccc(O)cc2)NC(=O)[C@H](CC(C)C)NC(=O)[C@H](Cc2c[nH]cn2)NC(=O)[C@H](CCCCN)NC1=O` [4.10], the Kd on FGF-R1C ECD [1] (read-out: R1C KD, purified trimer-18 library peptides, multi-concentration BLI) is more than 1000 nM; on FGF-R3C ECD [2] (read-out: R3C KD, purified trimer-18 library peptides, multi-concentration BLI), 519 nM; at FGF-R4 ECD [3] (setting [7]) it was 2 nM; at FGF-R1C ECD [4] (read-out: KD (1C)), 1030 nM; on FGF-R3C ECD [5] (read-out: KD(3C)), 928 nM; on FGF-R4 ECD [6] (setting [8]), 1 nM.

Regarding `CSCC[C@H](NC(C)=O)C(=O)N[C@H]1CSSC[C@@H](C(=O)NCC(=O)N[C@@H](CO)C(=O)NCC(=O)N[C@@H](CO)C(=O)N[C@@H](CC(=O)O)C(=O)N[C@@H](Cc2ccc(O)cc2)C(=O)N[C@@H](CCCCN)C(=O)N[C@@H](CC(=O)O)C(=O)N[C@@H](CC(=O)O)C(=O)N[C@@H](CC(=O)O)C(=O)N[C@@H](CC(=O)O)C(=O)N[C@@H](CCCCN)C(N)=O)NC(=O)[C@H](C(C)C)NC(=O)[C@H](Cc2c[nH]c3ccccc23)NC(=O)[C@H](Cc2c[nH]c3ccccc23)NC(=O)[C@H](CC(C)C)NC(=O)[C@H](CCCCN)NC(=O)[C@H](Cc2c[nH]c3ccccc23)NC(=O)[C@H](CCCNC(=N)N)NC(=O)[C@H](Cc2ccc(O)cc2)NC(=O)[C@H](C)NC(=O)[C@H](CC(=O)O)NC(=O)[C@H](CO)NC(=O)[C@H](CCC(=O)O)NC1=O` [4.12], the Kd at FGF-R1C ECD [1] is more than 1000 nM; at FGF-R3C ECD [2], more than 1000 nM; at FGF-R4 ECD [3] (setting [7]), 15 nM; at FGF-R1C ECD [4] it was 1570 nM; at FGF-R3C ECD [5] it was more than 10000 nM; at FGF-R4 ECD [6] (setting [8]), 10 nM.

Turning to `CC[C@H](C)[C@@H]1NC(=O)[C@H](CCCCN)NC(=O)[C@H](Cc2ccc(O)cc2)NC(=O)[C@H]([C@@H](C)CC)NC(=O)[C@H](CO)NC(=O)[C@H](C(C)C)NC(=O)[C@H](CC(C)C)NC(=O)[C@@H](NC(=O)[C@H](CCSC)NC(C)=O)CSSC[C@@H](C(=O)NCC(=O)N[C@@H](CO)C(=O)NCC(=O)N[C@@H](CO)C(=O)N[C@@H](CC(=O)O)C(=O)N[C@@H](Cc2ccc(O)cc2)C(=O)N[C@@H](CCCCN)C(=O)N[C@@H](CC(=O)O)C(=O)N[C@@H](CC(=O)O)C(=O)N[C@@H](CC(=O)O)C(=O)N[C@@H](CC(=O)O)C(=O)N[C@@H](CCCCN)C(N)=O)NC(=O)[C@H]([C@@H](C)O)NC(=O)[C@H](CCCNC(=N)N)NC(=O)[C@H](CCSC)NC1=O` [4.1], the Kd on FGF-R1C ECD [1] was more than 1000 nM; at FGF-R3C ECD [2], more than 1000 nM; on FGF-R4 ECD [3] (purified NNK library peptides), more than 1000 nM; at FGF-R1C ECD [4] it was more than 10000 nM; at FGF-R3C ECD [5] it was 6120 nM; on FGF-R4 ECD [6] (crude NNK peptides, single concentration BLI (Table S3)), 193 nM.

`CSCC[C@H](NC(C)=O)C(=O)N[C@H]1CSSC[C@@H](C(=O)NCC(=O)N[C@@H](CO)C(=O)NCC(=O)N[C@@H](CO)C(=O)N[C@@H](CC(=O)O)C(=O)N[C@@H](Cc2ccc(O)cc2)C(=O)N[C@@H](CCCCN)C(=O)N[C@@H](CC(=O)O)C(=O)N[C@@H](CC(=O)O)C(=O)N[C@@H](CC(=O)O)C(=O)N[C@@H](CC(=O)O)C(=O)N[C@@H](CCCCN)C(N)=O)NC(=O)[C@H](Cc2c[nH]cn2)NC(=O)[C@H](CCCNC(=N)N)NC(=O)[C@H](CC(C)C)NC(=O)[C@H](C(C)C)NC(=O)[C@H](CCCCN)NC(=O)[C@H](Cc2ccc(O)cc2)NC(=O)[C@H](CC(C)C)NC(=O)[C@H](CC(C)C)NC(=O)[C@H](C(C)C)NC(=O)[C@H](CC(N)=O)NC1=O` [4.11]: the Kd is more than 1000 nM at FGF-R1C ECD [1]; 115 nM at FGF-R3C ECD [2]; 543 nM at FGF-R4 ECD [3] (setting [7]); more than 10000 nM on FGF-R1C ECD [4]; more than 10000 nM on FGF-R3C ECD [5]; 11 nM at FGF-R4 ECD [6] (setting [8]).

As for `CSCC[C@H](NC(C)=O)C(=O)N[C@H]1CSSC[C@@H](C(=O)NCC(=O)N[C@@H](CO)C(=O)NCC(=O)N[C@@H](CO)C(=O)N[C@@H](CCC(=O)O)C(=O)N[C@@H](CCC(=O)O)C(=O)NCC(=O)N[C@@H](CO)C(=O)NCC(=O)N[C@@H](CO)C(=O)N[C@@H](CC(=O)O)C(=O)N[C@@H](Cc2ccc(O)cc2)C(=O)N[C@@H](CCCCN)C(=O)N[C@@H](CC(=O)O)C(=O)N[C@@H](CC(=O)O)C(=O)N[C@@H](CC(=O)O)C(=O)N[C@@H](CC(=O)O)C(=O)N[C@@H](CCCCN)C(N)=O)NC(=O)[C@H](CCCNC(=N)N)NC(=O)[C@H](CCCNC(=N)N)NC(=O)[C@H](Cc2c[nH]c3ccccc23)NC(=O)[C@H](CC(C)C)NC(=O)[C@H](CCCCN)NC(=O)[C@H](Cc2ccc(O)cc2)NC(=O)[C@H](Cc2ccc(O)cc2)NC(=O)[C@H](Cc2ccc(O)cc2)NC(=O)[C@H](CC(C)C)NC(=O)[C@H]([C@@H](C)O)NC(=O)[C@H]([C@@H](C)O)NC1=O` [4.9], the Kd on FGF-R1C ECD [1] was more than 1000 nM; on FGF-R3C ECD [2] it was more than 1000 nM; at FGF-R4 ECD [3] (setting [7]) it was more than 1000 nM; at FGF-R1C ECD [4], 699 nM; at FGF-R3C ECD [5], 2250 nM; on FGF-R4 ECD [6] (setting [8]) it was 1 nM.
